Assays:
[1] = cited from earlier work
[2] = test system: Apis mellifera Carniolan foraging worker honeybees; assay: proboscis extension response (PER) assay with bees conditioned to 2-heptanone; format: in vivo; conditions: for 2-heptanone positive bees testing positive to compound: PER, compound 0.5% on filter paper, 4 seconds exposure, only bees giving a PER with 2-heptanone but not with negative controls counted
Method: To determine whether a living honeybee can recognize a candidate compound, these compounds were tested using a proboscis extension response (PER) assay using classical conditioning approaches. Proboscis extension response conditioning is a case of appetitive learning, in which bees learn to associate odor stimuli with sucrose reward in the laboratory. In this case, bees were conditioned to produce a PER to 2-heptanone as the conditioned stimulus and a sugar reward as the unconditioned stimulus. These trained bees were then exposed to an odor pulse of a candidate compound to test whether a candidate compound would also produce a PER. If the candidate compound “mimics” 2-heptanone then the honeybee will extend its proboscis. For conditioning procedures, Apis mellifera Carniolan foraging worker honeybees were obtained from a local apiary (typically 60 bees per shipment). The honeybees were held overnight in insect cages with food and water freely available, in an environmentally controlled room on a light cycle similar to the ambient cycle at the time of the assay. For conditioning procedures, all tests were done in an odorant delivery apparatus set inside a fume hood. The apparatus comprised a set of open-ended, horizontal, 3 cm diameter by 10 cm long plastic tubes. Each tube was designed where a honeybee could be positioned at the distal end of a tube, with the opening at the other end of the tube located proximal to an inlet of the fume hood. To deliver an odorant, room air was pumped by a diaphragm pump through a particle filter via 0.25 inch plastic tubing at approximately 0.7 m/sec. The air flow passes into the headspace above an odorant (0.5% [v/v]2-heptanone dissolved in odorless light paraffin oil) contained in a 100 mL bottle. The headspace air then passes through another plastic tube to a manifold of 4-way valves, each of which was attached near the proximal end of a plastic tube containing a bee. Each bee was exposed separately for a desired time period to the odorant by opening and closing the appropriate valve. When each valve was closed, the odor was flushed away immediately by the continuous fume hood air stream. To train a honeybee to respond to a conditioned and unconditioned stimuli, bees were placed, without anesthesia, in individual 1.5 mL micro-centrifuge holding tubes and held overnight without access to food or water. The holding tubes containing the starved bees were placed in racks in groups of eight. One rack at a time was placed behind the odorant delivery apparatus so that each bee's head is centered at the distal end of a horizontal plastic tube. Each bee was exposed to the 2-heptanone odorant alone for four seconds, and then while being fed an 80% sucrose solution for and additional three seconds. The sucrose solution was delivered on a piece of saturated filter paper held in forceps. […] Positive and negative responses were recorded. A positive PER was scored when a bee extended its proboscis before the sucrose appeared. In a typical trial, 48 individual bees were subjected to conditioning. Six rounds of training were done before testing began, and typically a majority of the bees were successfully conditioned by the second or third round of training. After conditioning, honeybees were tested with the candidate compounds the same day or on the following day or, most commonly, both. When held overnight, bees were fed with sucrose and kept in their holding tubes. When tested the day after training, bees were given one or more rounds of conditioning with 2-heptatone to refresh their memories. Candidate compounds stocks were made at 5% (w/v) in polyoxyethylene octyl phenyl ether (TRITON® X-100), a non-ionic detergent/surfactant, and stored at 4° C. This detergent is similar to substances used as carriers for a variety of commercial pest-control agents, can act as a solvent for both hydrophilic and hydrophobic substances, and is itself nearly odorless. […]

OBP2 = assay: fluorescent-quench, ligand-protein-binding assay (OBP2 binding); parameters: species or system Apis mellifera
Description: To identify a honeybee repellent disclosed herein, candidate compounds were screened based upon the fact that 2-heptanone is an established repellent of bees. 2-heptanone is thought to mediate its behavioral response through binding to a specific odorant-binding protein called OBP2. Therefore compounds that bind OBP2 have the potential to act as odor “mimics” of 2-heptanone. By utilizing a fluorescent-quench, ligand-protein-binding assay, 30,000 compounds from the […]® library (ChemBridge Corp., San Diego, Calif.), a chemical library, were screened and over 150 candidate compounds were isolated that bind OBP2 (Table 1). Such assays are generally known in the art. See, e.g., Briand, et al., Ligand-Binding Properties and Structural Characterization of a Novel Rat Odorant-Binding Protein Variant, Eur. J. Biochem. 267(10): 3079-3089 (2000); Briand, et al., Ligand Binding and Physico-Chemical Properties of ASP2, A Recombinant Odorant-Binding Protein From Honeybee (Apis mellifera L.), Eur. J. Biochem. 268(3): 752-760 (2001); Briand, et al., Characterization of a Chemosensory Protein (ASP3c) from Honeybee (Apis mellifera L.) as a Brood Pheromone Carrier, Eur. J. Biochem. 269(18): 4586-4596 (2002), each of which is hereby incorporated by reference in its entirety.

[3] = test system: Apis mellifera Carniolan foraging worker honeybees; assay: choice test in a free-flight box apparatus; format: in vivo; conditions: for Z-score: Z-test (alpha=10%) versus control likelihood 47.5%, critical Z-score 1.282, positive value attractant, negative repellant; for nP (number of tests a honeybee returned to a preferred test dish): candidate compound 0.05-0.5% on filter paper below honey dish, out of n total tests; for P (probability that a honeybee will return to a test dish, nP/n): compared to control likelihood of 47.5% without compound
Description: To determine whether living honeybees will choice to move towards a source of a candidate compound, these compounds will be assayed using a choice test in a free-flight box apparatus.
All tests will be done in a free-flight box apparatus. The apparatus comprises a 244 cm long×46 cm deep×30 cm high clear plastic box including two equally-sized independent testing chambers, each with 10 cm diameter air inlets that admit filtered room air, separated by a smaller central chamber with a screened air outlet to each testing chamber. Air can be pulled through the sealed box via a 10 cm diameter duct from the air outlet using an AQE Fume Fighter 500 fume extractor (BPA Air Quality Solutions, LLC, Charleston, S.C.), which removes the test odors using activated charcoal and HEPA filters. The box is housed in an environmentally controlled room with overhead illumination timed to correspond to the current ambient light cycle including 2 additional sets of lights timed to approximate crepuscular lighting conditions. The bottom of the apparatus will be lined with clean absorbent paper marked with a 4×9 grid pattern, forming 12 cm×12 cm squares with marked coordinates.
Apis mellifera Carniolan foraging worker honeybees will be obtained from a local apiary (typically 60 bees per shipment). Thirty honeybees will be put into each testing chamber and will be allowed to acclimate for 24 hours with food and water freely available. At the beginning of each test day all food will be removed from the test chamber, but water will be continually available throughout all tests. For each test, approximately 0.3 g of organic, raw orange blossom honey will be added to each clean small plastic weigh boat (Cole-Palmer). The honey boats will be placed in small plastic culture dishes, which will be distributed in the marked squares in the chambers. The positions of the dishes on the grid for a set of trials was chosen to avoid bees' preferred resting area so that they will have to find the food actively, but the same dish positions will be maintained for a given set of trials. We will use seven dishes of honey: six to which the bees will have access and a seventh that will have a screened lid. The honey in each boat was weighed on an analytical balance before and after the test, with the screened sample as a control for evaporative loss. The fume extractor was left off during the experimental trails, and was turned on to clear the air after the test dishes were covered and removed from the chamber at the end of each trial.
Based on the observation that bees tend to return to dishes in the same position where they have fed before, each set of trials with each group of bees began with “Pattern Identification” tests to see which dishes lose the most weight, reflecting the most feeding. Once bees are consuming an acceptable amount in 10-15 min, typically in 1-2 trials, a set of test compound trials will begin. The test compound will be pipetted onto pieces of filter paper placed on the dish bottom below the boat containing a fresh, weighed honey sample so that the test compound will be inaccessible to the bees. We used 2 μL of a candidate compound at a concentration of 0.05-0.5%, in Triton X-100 or paraffin oil, on each of four pieces of filter paper per dish. The test-solution dishes will be set at the same positions as the one or two dishes favored in the preceding Pattern Identification trial. To eliminate interference from the solvent, the other dishes without the test substance will contain the same volume of the appropriate solvent on filter papers as the test solution dishes. The bees will be allowed to feed for 10-15 minutes. Bee movements will be recorded by a small, wide-angle digital video camcorder (HD Hero 960; GoPro, Halfmoon Bay, Calif.) placed on a tripod in front of the test chamber. […]

SMILES | solubility in alcohol or ether ([1]; alcohol or ether) | solubility in water ([1]; water) | total bees subjected to conditioning that exhibited a PER with the 2-heptanone positive control ([2]; 0.5% 2-heptanone in paraffin oil) | OBP2 binding characteristic of compound (OBP2) | 2-heptanone positive bees testing positive to compound [2] | Z-score [3] | nP (number of tests a honeybee returned to a preferred test dish) [3] | P (probability that a honeybee will return to a test dish, nP/n) [3]
CCCCCC(C)=O [2-heptanone, 2-Heptanone] | soluble | very slightly soluble | about half | – | – | – | – | –
O=C(NC(=S)N1CCCc2ccccc21)c1ccccc1 [Candidate Compound 62, N-(3,4-dihydro-1(2H)-quinolinylcarbonothioyl)benzamide] | – | – | – | Moderate (Moderate, indicates that 50% or less of the compound bound to OBP2.) | 23.6% | – | – | –
COc1ccc(C2SCC(=O)N2CCc2ccccc2)cc1 (centres unmarked) [Candidate Compound 63, 2-(4-methoxyphenyl)-3-(2-phenylethyl)-1,3-thiazolidin-4-one] | – | – | – | Moderate (Moderate, indicates that 50% or less of the compound bound to OBP2.) | 21.4% | 0.394 | 32 | 0.5
CCOc1cc(C)nc(-c2ccccc2O)n1 [Candidate Compound 64, 2-(4-ethoxy-6-methyl-2-pyrimidinyl)phenol] | – | – | – | Moderate (Moderate, indicates that 50% or less of the compound bound to OBP2.) | 21.7% | −3.043 | 16 | 0.276
COc1ccc(CCC(C)NN2CCOCC2)cc1 (centres unmarked) [Candidate Compound 65, N-[3-(4-methoxyphenyl)-1-methylpropyl]-4-morpholinamine] | – | – | – | Moderate (Moderate, indicates that 50% or less of the compound bound to OBP2.) | 7.6% | – | – | –
CCOC(=O)c1c(NC(=O)C(C)(C)C)sc2c1CCCC2 [Candidate Compound 69, ethyl 2-[(2,2-dimethylpropanoyl)amino]-4,5,6,7-tetrahydro-1-benzothiophene-3-carboxylate] | – | – | – | Moderate (Moderate, indicates that 50% or less of the compound bound to OBP2.) | 6.5% | – | – | –
Nc1c(C(=O)c2ccccc2)sc2nc(-c3ccccc3)ccc12 [Candidate Compound 76, (3-amino-6-phenylthieno[2,3-b]pyridin-2-yl)(phenyl)methanone] | – | – | – | Moderate (Moderate, indicates that 50% or less of the compound bound to OBP2.) | 11.9% | – | – | –
C=CCOc1cc(C)nc(-c2ccccc2O)n1 [Candidate Compound 104, 2-[4-(allyloxy)-6-methyl-2-pyrimidinyl]phenol] | – | – | – | Moderate (Moderate, indicates that 50% or less of the compound bound to OBP2.) | 27.9% | – | – | –

Source: US9351494B2, “Honeybee repellents and uses thereof” (Inscent, Inc., priority 2013, dated 2016)
